# Test results as given in PubChem BioAssay (NCI).
#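 Test compounds were applied to cells in 96-well plates for 48 hours at 5 doses. TGI denotes the concentration required for complete inhibition of growth.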
# Legend:
# Assay in all cases: NCI anticancer screen, dose series, 48 h
# SNB-19 CNS = test system: SNB-19 CNS
# SF-268 CNS = test system: SF-268 CNS
# HCT-116 colon = test system: HCT-116 colon
# MCF7 breast = test system: MCF7 breast
# KM12 colon = test system: KM12 colon
# OVCAR-4 ovarian = test system: OVCAR-4 ovarian
# K-562 leukemia = test system: K-562 leukemia
# SF-539 CNS = test system: SF-539 CNS
# UACC-257 melanoma = test system: UACC-257 melanoma
# SK-OV-3 ovarian = test system: SK-OV-3 ovarian
# RXF 393 renal = test system: RXF 393 renal
# COLO 205 colon = test system: COLO 205 colon
# SN12C renal = test system: SN12C renal
# MDA-N = test system: MDA-N
# A498 renal = test system: A498 renal
# MDA-MB-231 breast = test system: MDA-MB-231 breast
# RPMI-8226 leukemia = test system: RPMI-8226 leukemia
# OVCAR-8 ovarian = test system: OVCAR-8 ovarian
# SK-MEL-28 melanoma = test system: SK-MEL-28 melanoma
# NCI-H522 lung = test system: NCI-H522 lung
SMILES,TGI (SNB-19 CNS) [µM],TGI (SF-268 CNS) [µM],TGI (HCT-116 colon) [µM],TGI (MCF7 breast) [µM],TGI (KM12 colon) [µM],TGI (OVCAR-4 ovarian) [µM],TGI (K-562 leukemia) [µM],TGI (SF-539 CNS) [µM],TGI (UACC-257 melanoma) [µM],TGI (SK-OV-3 ovarian) [µM],TGI (RXF 393 renal) [µM],TGI (COLO 205 colon) [µM],TGI (SN12C renal) [µM],TGI (MDA-N) [µM],TGI (A498 renal) [µM],TGI (MDA-MB-231 breast) [µM],TGI (RPMI-8226 leukemia) [µM],TGI (OVCAR-8 ovarian) [µM],TGI (SK-MEL-28 melanoma) [µM],TGI (NCI-H522 lung) [µM]
c1ccc2c(c1)nc1n2CSCC1,> 100,> 100,> 100,> 100,> 100,> 100,> 100,> 100,> 100,> 100,> 100,> 100,> 100,> 100,> 100,> 100,> 100,> 100,> 100,
c1cc(-c2ccc(-c3nc4ccc(C5=NCCN5)cc4s3)s2)ccc1C1=NCCN1,9.38,0.662,1.35,0.255,1.67,0.5,4,0.319,> 100,,,,,1,,1.49,1.22,0.801,,
COc1ccc(C2C(C#N)=C(S)N(C3OC(COC(C)=O)C(OC(C)=O)C(OC(C)=O)C3OC(C)=O)C(C)=C2C(C)=O)cc1 (stereo not given),> 100,> 100,> 100,> 100,> 100,> 100,> 100,> 100,> 100,> 100,> 100,> 100,> 100,> 100,,> 100,> 100,,> 100,
Cc1ccc(/C=C/C(=N/NC(=O)N/N=C(/C=C/c2ccc(C)cc2)C(C)C)C(C)C)cc1,> 10,> 10,> 10,> 10,> 10,2.88,> 10,,> 10,,> 10,> 10,> 10,> 10,,> 10,> 10,> 10,,> 10
O/N=C(/C(Cl)=C(Cl)Cl)C(Cl)Cl,> 100,36.3,34.8,60.7,47.4,30.3,38,44.9,40.6,74.7,30.5,44.2,34.1,32.8,> 100,40,50.2,66.8,30.2,
Cc1c(O)c(OC2OC(CO)C(O)C(O)C2O)cc2c1C=C[C@@H]1[C@@]2(C)C(=O)C[C@]2(C)[C@@H]([C@@](C)(O)C(O)/C=C/C(C)(C)O)[C@H](O)C[C@@]12C (stereo not given in full),> 100,> 100,> 100,> 100,> 100,> 100,> 100,> 100,> 100,> 100,> 100,> 100,> 100,> 100,> 100,> 100,,> 100,> 100,> 100
Cc1c2n(c3ccccc13)S(=O)(=O)c1ccccc1-2,46.9,,> 100,> 100,> 100,> 100,> 100,,> 100,31.6,,> 100,,> 100,27.4,39.4,> 100,60.1,> 100,> 100
O=C1NC(N2CCCC(CO)C2)=N/C1=C\c1ccccc1 (stereo not given),> 100,> 100,> 100,> 100,> 100,> 100,,> 100,> 100,> 100,> 100,> 100,> 100,> 100,,> 100,> 100,> 100,> 100,> 100
COc1ccc2c(c1)CC1COc3cc(OC)ccc3C1O2 (stereo not given),,> 100,> 100,> 100,> 100,,,> 100,> 100,> 100,,> 100,> 100,> 100,> 100,> 100,> 100,> 100,,> 100
CC(=O)N1c2ccccc2C2=NN(C)C(=N)SC21 (stereo not given),> 100,> 100,> 100,> 100,> 100,> 100,> 100,> 100,> 100,,,> 100,> 100,> 100,> 100,> 100,> 100,> 100,> 100,> 100
